Reference: US10675360B2 (MADRIGAL PHARMACEUTICALS, INC., priority 2014, dated 2020)
Like-named read-outs stand apart in the source and are kept apart here.

Experiments:
H 3211 NSLC cells = experiment: IC50 of continuous and pulsed exposure to SDC-TRAPs; format: cell-based
[1] = Stability in mouse plasma; format: in vitro ADME; conditions: 1 h
Experimental: SDC-TRAP-0022 and SDC-TRAP-0028 were incubated in human and mouse plasma for 2 h at 37° C. and assayed for integrity at 0.25, 0.5, 1 and 2 h. The values reported below are the remaining of the parent compound at the end of the 2 h incubation period.
This solution was used to precipitate all plasma samples in the study. 200 μL was pipetted into a 96 deepwell plate over dry ice. 10 μL of 1 mM stock in DMSO was added to a 1.5 mL microfuge tube, then 990 μL of plasma. Samples were mixed by vortex, then 50 μL of each sample was added in triplicate to a 96-well plate containing internal standard solution. This was designated the 0 hour time point sample. 250 μL of the remaining plasma sample was added to each of four 96 deepwell plates—one per time point. Samples were incubated at 37° C. with gentle shaking for 0.25, 0.5, and 1 hour. After each time point, one plate of each sample was removed from the shaker and placed on wet ice for approximately 2 minutes. 50 μL plasma aliquots (in triplicate) were added to the deepwell plate containing internal standard solution. After the last time point was extracted, the 96 deepwell plate was vortexed, then centrifuged at 2-8° C. 150 μL of supernatant was collected and 25 μL of water was added. Samples were mixed and analyzed by LC-MS/MS.
The stability of seven SDC-TRAP types in mouse plasma was measured as follows. 990 μL mouse plasma aliquots from a common stock were spiked with 10 μL of 1 mM stock of one of seven SDC-TRAP samples identified in the table below. Each sample was mixed and divided into 250 μL aliquots, each representing time points 0, 15 minutes, 30 minutes or 1 hour. At the prescribed time point, 3×50 μL samples were each mixed with 200 μL of methanol containing internal standard and held on dry ice until all time point samples were extracted. The samples collectively were vortex mixed for 1.5 minutes at 1500 rpm, then centrifuged at 4400 rpm for 10 minutes at 8° C.

[2] = 1 h, read-out: IC50, 1 h-pulse/71 h-compound free, H 3211 NSLC cells, 7.5 × 10^3 cells/well, 1st of 2 columns
[3] = 1 h, read-out: IC50, 1 h-pulse/71 h-compound free, H 3211 NSLC cells, 7.5 × 10^3 cells/well, 2nd of 2 columns
[4] = 72 h, read-out: IC50, 72 h-continuous, H 3211 NSLC cells, 7.5 × 10^3 cells/well, 2nd of 3 columns

Question: For `CNCCn1ccc2cc(-n3c(O)nnc3-c3cc(C(C)C)c(O)cc3O)ccc21` [SDC-TRAP-0004], which IC50 (H 3211 NSLC cells; read-out: IC50, 1 h-pulse/71 h-compound free, H 3211 NSLC cells, 7.5 × 10^3 cells/well, 1st of 2 columns) is on record?
Answer: 624 nM

Question: And the IC50 (H 3211 NSLC cells; read-out: IC50, 1 h-pulse/71 h-compound free, H 3211 NSLC cells, 7.5 × 10^3 cells/well, 2nd of 2 columns)?
Answer: 1750 nM

Question: And the IC50 (H 3211 NSLC cells; read-out: IC50, 72 h-continuous, H 3211 NSLC cells, 7.5 × 10^3 cells/well, 1st of 3 columns)?
Answer: 22 nM

Question: What about the IC50 (H 3211 NSLC cells; read-out: IC50, 72 h-continuous, H 3211 NSLC cells, 7.5 × 10^3 cells/well, 2nd of 3 columns) of the same molecule?
Answer: 60 nM

Question: And the IC50 (H 3211 NSLC cells; read-out: IC50, 72 h-continuous, H 3211 NSLC cells, 7.5 × 10^3 cells/well, 3rd of 3 columns)?
Answer: 40 nM

Question: With `CC(C)c1cc(-c2nnc(O)n2-c2ccc3c(ccn3CCOCCNC(=O)CCCC(=O)Nc3cccc4c3CN(C3CCC(=O)NC3=O)C4=O)c2)c(O)cc1O` (stereo not drawn) [SDC-TRAP-0015, N1-(2-(2-(5-(3-(2,4-dihydroxy-5-isopropylphenyl)-5-hydroxy-4H-1,2,4-triazol-4-yl)-1H-indol-1-yl)ethoxy)ethyl)-N5-(2-(2,6-dioxopiperidin-3-yl)-1-oxoisoindolin-4-yl)glutaramide] as the molecule, how does the IC50 (H 3211 NSLC cells; [2]) read?
Answer: > 3000 nM

Question: What about the IC50 (H 3211 NSLC cells; [3]) of the same molecule?
Answer: > 3000 nM

Question: And the IC50 (H 3211 NSLC cells; [4])?
Answer: 2230 nM

Question: With `CC(C)c1cc(-c2nnc(O)n2-c2ccc3c(ccn3CCN(C)C(=O)CCCC(=O)Nc3cccc4c3CN(C3CCC(=O)NC3=O)C4=O)c2)c(O)cc1O` (stereo not drawn) [SDC-TRAP-0018, N1-(2-(5-(3-(2,4-dihydroxy-5-isopropylphenyl)-5-hydroxy-4H-1,2,4-triazol-4-yl)-1H-indol-1-yl)ethyl)-N5-(2-(2,6-dioxopiperidin-3-yl)-1-oxoisoindolin-4-yl)-N1-methylglutaramide] as the molecule, how does the IC50 (H 3211 NSLC cells; [2]) read?
Answer: > 3000 nM

Question: What about the IC50 (H 3211 NSLC cells; [3]) of the same molecule?
Answer: > 3000 nM

Question: And the IC50 (H 3211 NSLC cells; 72 h, read-out: IC50, 72 h-continuous, H 3211 NSLC cells, 7.5 × 10^3 cells/well, 1st of 3 columns)?
Answer: 287 nM

Question: And the IC50 (H 3211 NSLC cells; [4])?
Answer: 839 nM

Question: What about the IC50 (H 3211 NSLC cells; 72 h, read-out: IC50, 72 h-continuous, H 3211 NSLC cells, 7.5 × 10^3 cells/well, 3rd of 3 columns) of the same molecule?
Answer: 735 nM

Question: Which “% Remaining” value ([1]; mouse, plasma, 10 μM) does the source give for `CCNC(=O)c1nnc(-c2cc(C(C)C)c(O)cc2O)n1-c1ccc(OC2CCN(C(=O)Oc3c(C)cc(COC(=O)Nc4cccc5c4CN(C4CCC(=O)NC4=O)C5=O)cc3C)CC2)cc1` (stereo not drawn) [SDC-TRAP-0187, 4-((((2-(2,6-dioxopiperidin-3-yl)-1-oxoisoindolin-4-yl)carbamoyl)oxy)methyl)-2,6-dimethylphenyl 4-(4-(3-(2,4-dihydroxy-5-isopropylphenyl)-5-(ethylcarbamoyl)-4H-1,2,4-triazol-4-yl)phenoxy)piperidine-1-carboxylate] here?
Answer: 102%

Question: With `CCNC(=O)c1nnc(-c2cc(C(C)C)c(O)cc2O)n1-c1ccc(CN2CCC(C(=O)N3CCN(c4cc(C)c(OC(=O)Nc5cccc6c5CN(C5CCC(=O)NC5=O)C6=O)c(C)c4)CC3)CC2)cc1` (stereo not drawn) [SDC-TRAP-0195, 4-(4-(1-(4-(3-(2,4-dihydroxy-5-isopropylphenyl)-5-(ethylcarbamoyl)-4H-1,2,4-triazol-4-yl)benzyl)piperidine-4-carbonyl)piperazin-1-yl)-2,6-dimethylphenyl (2-(2,6-dioxopiperidin-3-yl)-1-oxoisoindolin-4-yl)carbamate] as the molecule, how does the “% Remaining” value ([1]; mouse, plasma, 10 μM) read?
Answer: 98.4%

Question: For `CCNC(=O)c1nnc(-c2cc(C(C)C)c(O)cc2O)n1-c1ccc2c(c1)CN(Cc1cc(OC)c(OC(=O)Nc3cccc4c3CN(C3CCC(=O)NC3=O)C4=O)c(OC)c1)C2` (stereo not drawn) [SDC-TRAP-0196], which “% Remaining” value ([1]; mouse, plasma, 10 μM) is on record?
Answer: 66.2%

Question: For `CCNC(=O)c1nnc(-c2cc(C(C)C)c(O)cc2O)n1-c1ccc(C(=O)N2CCN(C(=O)COC(=O)OC3(CC)C(=O)OCc4c3cc3n(c4=O)Cc4c-3nc3ccc(O)cc3c4CC)CC2)cc1` (stereo not drawn) [SDC-TRAP-0202, 4,11-diethyl-9-hydroxy-3,14-dioxo-3,4,12,14-tetrahydro-1H-pyrano[3′,4′:6,7]indolizino[1,2-b]quinolin-4-yl (2-(4-(4-(3-(2,4-dihydroxy-5-isopropylphenyl)-5-(ethylcarbamoyl)-4H-1,2,4-triazol-4-yl)benzoyl)piperazin-1-yl)-2-oxoethyl) carbonate], which “% Remaining” value ([1]; mouse plasma, 37° C.) is on record?
Answer: 21.2%

Question: Which “% Remaining” value ([1]; mouse plasma, 37° C.) does the source give for `CCNC(=O)c1nnc(-c2cc(C(C)C)c(O)cc2O)n1-c1ccc(Oc2ccc(C(=O)N3CCC(OC(=O)OC4(CC)C(=O)OCc5c4cc4n(c5=O)Cc5c-4nc4ccc(O)cc4c5CC)CC3)cc2)cc1` (stereo not drawn) [SDC-TRAP-0203, 4,11-Diethyl-9-hydroxy-3,14-dioxo-3,4,12,14-tetrahydro-1H-pyrano[3′,4′:6,7]indolizino[1,2-b]quinolin-4-yl (1-(4-(4-(3-(2,4-dihydroxy-5-isopropylphenyl)-5-(ethylcarbamoyl)-4H-1,2,4-triazol-4-yl)phenoxy)benzoyl)piperidin-4-yl) carbonate] here?
Answer: 71.2%

Question: Which “% Remaining” value ([1]; mouse plasma, 37° C.) does the source give for `CCNC(=O)c1nnc(-c2cc(C(C)C)c(O)cc2O)n1-c1ccc2c(ccn2CCC2CCN(C(=O)Oc3ccc4nc5c(c(CC)c4c3)Cn3c-5cc4c(c3=O)COC(=O)[C@]4(O)CC)CC2)c1` [SDC-TRAP-0205, (S)-4,11-diethyl-4-hydroxy-3,14-dioxo-3,4,12,14-tetrahydro-1H-pyrano[3′,4′:6,7]indolizino[1,2-b]quinolin-9-yl 4-(2-(5-(3-(2,4-dihydroxy-5-isopropylphenyl)-5-(ethylcarbamoyl)-4H-1,2,4-triazol-4-yl)-1H-indol-1-yl)ethyl)piperidine-1-carboxylate] here?
Answer: 58.4%

Question: For `CCNC(=O)c1nnc(-c2cc(C(C)C)c(O)cc2O)n1-c1ccc(OC2CCN(C(=O)CN(C)C(=O)Oc3ccc4nc5c(c(CC)c4c3)Cn3c-5cc4c(c3=O)COC(=O)[C@]4(O)CC)CC2)cc1` [SDC-TRAP-0206, (S)-4,11-diethyl-4-hydroxy-3,14-dioxo-3,4,12,14-tetrahydro-1H-pyrano[3′,4′:6,7]indolizino[1,2-b]quinolin-9-yl(2-(4-(4-(3-(2,4-dihydroxy-5-isopropylphenyl)-5-(ethylcarbamoyl)-4H-1,2,4-triazol-4-yl)phenoxy)piperidin-1-yl)-2-oxoethyl)(methyl)carbamate], which “% Remaining” value ([1]; mouse plasma, 37° C.) is on record?
Answer: 68.6%

Question: For `CCNC(=O)c1nnc(-c2cc(C(C)C)c(O)cc2O)n1-c1ccc2c(ccn2CCC2CCN(C(=O)O[C@]3(CC)C(=O)OCc4c3cc3n(c4=O)Cc4c-3nc3ccc(O)cc3c4CC)CC2)c1` [SDC-TRAP-0208, (S)-4,11-diethyl-9-hydroxy-3,14-dioxo-3,4,12,14-tetrahydro-1H-pyrano[3′,4′:6,7]indolizino[1,2-b]quinolin-4-yl 4-(2-(5-(3-(2,4-dihydroxy-5-isopropylphenyl)-5-(ethylcarbamoyl)-4H-1,2,4-triazol-4-yl)-1H-indol-1-yl)ethyl)piperidine-1-carboxylate], which “% Remaining” value ([1]; mouse plasma, 37° C.) is on record?
Answer: 86.1%

Question: For `CCNC(=O)c1nnc(-c2cc(C(C)C)c(O)cc2O)n1-c1ccc(OC2CCN(C(=O)[C@@H]3CCCN3C(=O)Oc3ccc4nc5c(c(CC)c4c3)Cn3c-5cc4c(c3=O)COC(=O)[C@]4(O)CC)CC2)cc1` [SDC-TRAP-0209], which “% Remaining” value ([1]; mouse plasma, 37° C.) is on record?
Answer: 67.1%

Question: Which “% Remaining” value ([1]; mouse plasma, 37° C.) does the source give for `CCNC(=O)c1nnc(-c2cc(C(C)C)c(O)cc2O)n1-c1ccc(OC2CCN(C(=O)C3CCN(C(=O)Oc4ccc5nc6c(c(CC)c5c4)Cn4c-6cc5c(c4=O)COC(=O)[C@]5(O)CC)C(C)C3)CC2)cc1` (stereo partly drawn) [SDC-TRAP-0213, (S)-4,11-diethyl-4-hydroxy-3,14-dioxo-3,4,12,14-tetrahydro-1H-pyrano[3′,4′:6,7]indolizino[1,2-b]quinolin-9-yl 4-(4-(4-(3-(2,4-dihydroxy-5-isopropylphenyl)-5-(ethylcarbamoyl)-4H-1,2,4-triazol-4-yl)phenoxy)piperidine-1-carbonyl)-2-methylpiperidine-1-carboxylate] here?
Answer: 74.7%

Question: With `CCc1c2c(nc3ccc(OC(=O)N4CCCCC4C(=O)N4CCC(CCn5ccc6cc(-n7c(O)nnc7-c7cc(C(C)C)c(O)cc7O)ccc65)CC4)cc13)-c1cc3c(c(=O)n1C2)COC(=O)[C@]3(O)CC` (stereo partly drawn) [SDC-TRAP-0215, (S)-4,11-diethyl-4-hydroxy-3,14-dioxo-3,4,12,14-tetrahydro-1H-pyrano[3′,4′:6,7]indolizino[1,2-b]quinolin-9-yl 2-(4-(2-(5-(3-(2,4-dihydroxy-5-isopropylphenyl)-5-hydroxy-4H-1,2,4-triazol-4-yl)-1H-indol-1-yl)ethyl)piperidine-1-carbonyl)piperidine-1-carboxylate] as the molecule, how does the “% Remaining” value ([1]; mouse plasma, 37° C.) read?
Answer: 77.2%

Question: With `CCNC(=O)c1nnc(-c2cc(C(C)C)c(O)cc2O)n1-c1ccc(OC2CCN(C(=O)C3CCCCN3C(=O)Oc3ccc4nc5c(c(CC)c4c3)Cn3c-5cc4c(c3=O)COC(=O)[C@]4(O)CC)CC2)cc1` (stereo partly drawn) [SDC-TRAP-0216, (S)-4,11-diethyl-4-hydroxy-3,14-dioxo-3,4,12,14-tetrahydro-1H-pyrano[3′,4′:6,7]indolizino[1,2-b]quinolin-9-yl 2-(4-(4-(3-(2,4-dihydroxy-5-isopropylphenyl)-5-(ethylcarbamoyl)-4H-1,2,4-triazol-4-yl)phenoxy)piperidine-1-carbonyl)piperidine-1-carboxylate] as the molecule, how does the “% Remaining” value ([1]; mouse plasma, 37° C.) read?
Answer: 67.7%

Question: Which “% Remaining” value ([1]; mouse plasma, 37° C.) does the source give for `CCc1c2c(nc3ccc(OC(=O)N4CCN(Cc5ccc(-n6c(O)nnc6-c6cc(C(C)C)c(O)cc6O)cc5)CC4C)cc13)-c1cc3c(c(=O)n1C2)COC(=O)C3(O)CC` (stereo not drawn) [SDC-TRAP-0220, 4,11-diethyl-4-hydroxy-3,14-dioxo-3,4,12,14-tetrahydro-1H-pyrano[3′,4′:6,7]indolizino[1,2-b]quinolin-9-yl 4-(4-(3-(2,4-dihydroxy-5-isopropylphenyl)-5-hydroxy-4H-1,2,4-triazol-4-yl)benzyl)-2-methylpiperazine-1-carboxylate] here?
Answer: 78.3%

Question: Which “% Remaining” value ([1]; mouse, plasma, 10 μM) does the source give for `CCNC(=O)c1nnc(-c2cc(C(C)C)c(O)cc2O)n1-c1ccc(CN2CCC(C(=O)N(C)CCCOC(=O)Nc3cccc4c3CN(C3CCC(=O)NC3=O)C4=O)CC2)cc1` (stereo not drawn) [SDC-TRAP-0231, 3-(1-(4-(3-(2,4-dihydroxy-5-isopropylphenyl)-5-(ethylcarbamoyl)-4H-1,2,4-triazol-4-yl)benzyl)-N-methylpiperidine-4-carboxamido)propyl (2-(2,6-dioxopiperidin-3-yl)-1-oxoisoindolin-4-yl)carbamate] here?
Answer: 98.3%
